Laboratory results as given in publication PMC10853753, “Structure Prediction and Genome Mining‐Aided Discovery of the Bacterial C‐Terminal Tryptophan Prenyltransferase PalQ” (Advanced Science, 2023).

Biological target: T1, PalQ (Paenibacillus alvei, UniProt A0ABT4H1V4)
T1 construct: gene M5X12_20665; homodimer by size exclusion chromatography
T1 sequence (A0ABT4H1V4 1-312): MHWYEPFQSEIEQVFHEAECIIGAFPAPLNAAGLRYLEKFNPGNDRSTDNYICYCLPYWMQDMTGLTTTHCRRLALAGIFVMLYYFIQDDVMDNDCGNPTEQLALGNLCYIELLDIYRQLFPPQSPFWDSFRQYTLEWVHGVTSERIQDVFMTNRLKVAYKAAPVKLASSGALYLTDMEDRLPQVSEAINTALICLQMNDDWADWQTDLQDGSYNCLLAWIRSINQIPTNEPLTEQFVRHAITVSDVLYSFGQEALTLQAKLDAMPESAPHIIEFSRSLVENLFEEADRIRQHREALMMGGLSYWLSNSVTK
Experiment: prenylation kinetics, Michaelis-Menten curve
Assay type: biochemical
Conditions: acceptor PalX; curve without saturation, poor water solubility

In the case of CC(C)=CCC/C(C)=C/COP(=O)(O)OP(=O)(O)O [GPP], the “prenylation kinetics, Michaelis-Menten curve” value is reported as “We then assessed the kinetics of PalQ for DMAPP, GPP, and FPP”.
For CC(C)=CCC/C(C)=C/CC/C(C)=C/COP(=O)(O)OP(=O)(O)O [FPP], the “prenylation kinetics, Michaelis-Menten curve” value was “We then assessed the kinetics of PalQ for DMAPP, GPP, and FPP”.
